Results from ChEMBL document CHEMBL1138190, “Synthesis and antibacterial activity of novel C12 vinyl ketolides” (J Med Chem, 2006).
In brackets after ≈: the same amount, converted by molar mass.

Assays:
Format in all cases: functional
Streptococcus pneumoniae [1] = experiment: Antibacterial activity against Streptococcus pneumoniae 49619
Streptococcus pneumoniae [2] = experiment: Antibacterial activity against Streptococcus pneumoniae 280-962
Streptococcus pyogenes = experiment: Antibacterial activity against Streptococcus pyogenes 8668
Streptococcus pneumoniae [3] = experiment: Antibacterial activity against Streptococcus pneumoniae Mef 5654
[4] = system: Staphylococcus epidermidis; experiment: Antibacterial activity against Staphylococcus epidermidis f50654
Staphylococcus aureus [5] = experiment: Antibacterial activity against Staphylococcus aureus 33591
Streptococcus pneumoniae [6] = experiment: Antibacterial activity against Streptococcus pneumoniae 297-749
Enterococcus faecalis [7] = experiment: Antibacterial activity against Enterococcus faecalis 29212
Staphylococcus aureus [8] = experiment: Antibacterial activity against Staphylococcus aureus 29213
Haemophilus influenzae [9] = experiment: Antibacterial activity against Haemophilus influenzae 2762
Haemophilus influenzae [10] = experiment: Antibacterial activity against Haemophilus influenzae 49247
Enterococcus faecalis [11] = experiment: Antibacterial activity against Enterococcus faecalis bc11148-2
Streptococcus pneumoniae [12] = experiment: Antibacterial activity against Streptococcus pneumoniae Erm 6849
Streptococcus pneumoniae [13] = experiment: Antibacterial activity against Streptococcus pneumoniae Mef S 3427
[14] = system: Staphylococcus epidermidis; experiment: Antibacterial activity against Staphylococcus epidermidis 14990

| Compound | MIC (Streptococcus pneumoniae [1]) | MIC (Streptococcus pneumoniae [2]) | MIC (Streptococcus pyogenes) | MIC (Streptococcus pneumoniae [3]) | MIC [4] | MIC (Staphylococcus aureus [5]) | MIC (Streptococcus pneumoniae [6]) | MIC (Enterococcus faecalis [7]) | MIC (Staphylococcus aureus [8]) | MIC (Haemophilus influenzae [9]) | MIC (Haemophilus influenzae [10]) | MIC (Enterococcus faecalis [11]) | MIC (Streptococcus pneumoniae [12]) | MIC (Streptococcus pneumoniae [13]) | MIC [14] |
| --- | --- | --- | --- | --- | --- | --- | --- | --- | --- | --- | --- | --- | --- | --- | --- |
| C=C[C@]12OC(=O)N(CCCCn3cnc(-c4cnccn4)c3)[C@@H]1[C@@H](C)C(=O)[C@H](C)C[C@@](C)(OC)[C@H](O[C@@H]1O[C@H](C)C[C@H](N(C)C)[C@H]1O)[C@@H](C)C(=O)[C@@H](C)C(=O)O[C@@H]2CC | ≤ 0.05 µg/mL | ≤ 0.05 µg/mL | ≤ 0.05 µg/mL | 0.78 µg/mL (≈ 0.945 µM) | 0.2 µg/mL (≈ 0.242 µM) | > 50 µg/mL | ≤ 0.05 µg/mL | 0.1 µg/mL (≈ 0.121 µM) | 0.2 µg/mL (≈ 0.242 µM) | 1.56 µg/mL (≈ 1.89 µM) | 3.13 µg/mL (≈ 3.79 µM) | 0.4 µg/mL (≈ 0.485 µM) | 0.2 µg/mL (≈ 0.242 µM) | 0.1 µg/mL (≈ 0.121 µM) | 0.1 µg/mL (≈ 0.121 µM) |
| C=C[C@]12OC(=O)N(CCCCc3cnc(-c4cccnc4)s3)[C@@H]1[C@@H](C)C(=O)[C@H](C)C[C@@](C)(OC)[C@H](O[C@@H]1O[C@H](C)C[C@H](N(C)C)[C@H]1O)[C@@H](C)C(=O)[C@@H](C)C(=O)O[C@@H]2CC | ≤ 0.05 µg/mL | ≤ 0.05 µg/mL | ≤ 0.05 µg/mL | 0.4 µg/mL (≈ 0.476 µM) | 0.1 µg/mL (≈ 0.119 µM) | > 50 µg/mL | ≤ 0.05 µg/mL | ≤ 0.05 µg/mL | 0.1 µg/mL (≈ 0.119 µM) | 1.56 µg/mL (≈ 1.85 µM) | 3.13 µg/mL (≈ 3.72 µM) | 1.56 µg/mL (≈ 1.85 µM) | 1.56 µg/mL (≈ 1.85 µM) | ≤ 0.05 µg/mL | 0.1 µg/mL (≈ 0.119 µM) |
| C=C[C@]12OC(=O)N(CCCCn3ccc4nc(C(C)=O)ccc43)[C@@H]1[C@@H](C)C(=O)[C@H](C)C[C@@](C)(OC)[C@H](O[C@@H]1O[C@H](C)C[C@H](N(C)C)[C@H]1O)[C@@H](C)C(=O)[C@@H](C)C(=O)O[C@@H]2CC | ≤ 0.05 µg/mL | ≤ 0.05 µg/mL | ≤ 0.05 µg/mL | 0.78 µg/mL (≈ 0.93 µM) | 0.1 µg/mL (≈ 0.119 µM) | > 50 µg/mL | ≤ 0.05 µg/mL | 0.2 µg/mL (≈ 0.238 µM) | 0.1 µg/mL (≈ 0.119 µM) | 0.2 µg/mL (≈ 0.238 µM) | 3.13 µg/mL (≈ 3.73 µM) | 6.25 µg/mL (≈ 7.45 µM) | 3.13 µg/mL (≈ 3.73 µM) | 0.2 µg/mL (≈ 0.238 µM) | 0.1 µg/mL (≈ 0.119 µM) |
| C=C[C@]12OC(=O)N(CCCCn3ccc4c(N)cccc43)[C@@H]1[C@@H](C)C(=O)[C@H](C)C[C@@](C)(OC)[C@H](O[C@@H]1O[C@H](C)C[C@H](N(C)C)[C@H]1O)[C@@H](C)C(=O)[C@@H](C)C(=O)O[C@@H]2CC | ≤ 0.05 µg/mL | ≤ 0.05 µg/mL | ≤ 0.05 µg/mL | 0.78 µg/mL (≈ 0.962 µM) | 0.78 µg/mL (≈ 0.962 µM) | > 50 µg/mL | ≤ 0.05 µg/mL | ≤ 0.05 µg/mL | 0.1 µg/mL (≈ 0.123 µM) | 3.13 µg/mL (≈ 3.86 µM) | 3.13 µg/mL (≈ 3.86 µM) | 0.625 µg/mL (≈ 0.771 µM) | 3.13 µg/mL (≈ 3.86 µM) | 0.1 µg/mL (≈ 0.123 µM) | 0.1 µg/mL (≈ 0.123 µM) |
| C=C[C@]12OC(=O)N(CCCCn3cnc(-c4cccnc4)c3)[C@@H]1[C@@H](C)C(=O)[C@H](C)C[C@@](C)(OC)[C@H](O[C@@H]1O[C@H](C)C[C@H](N(C)C)[C@H]1O)[C@@H](C)C(=O)[C@@H](C)C(=O)O[C@@H]2CC | ≤ 0.05 µg/mL | ≤ 0.05 µg/mL | ≤ 0.05 µg/mL | 0.4 µg/mL (≈ 0.485 µM) | 0.2 µg/mL (≈ 0.243 µM) | > 50 µg/mL | ≤ 0.05 µg/mL | 0.1 µg/mL (≈ 0.121 µM) | 0.1 µg/mL (≈ 0.121 µM) | 1.56 µg/mL (≈ 1.89 µM) | 3.13 µg/mL (≈ 3.8 µM) | 0.4 µg/mL (≈ 0.485 µM) | 0.2 µg/mL (≈ 0.243 µM) | 0.1 µg/mL (≈ 0.121 µM) | 0.2 µg/mL (≈ 0.243 µM) |
| C=C[C@]12OC(=O)N(CCCCn3cc(Cl)c4ncccc43)[C@@H]1[C@@H](C)C(=O)[C@H](C)C[C@@](C)(OC)[C@H](O[C@@H]1O[C@H](C)C[C@H](N(C)C)[C@H]1O)[C@@H](C)C(=O)[C@@H](C)C(=O)O[C@@H]2CC | ≤ 0.05 µg/mL | ≤ 0.05 µg/mL | ≤ 0.05 µg/mL | 0.78 µg/mL (≈ 0.938 µM) | 0.1 µg/mL (≈ 0.12 µM) | > 50 µg/mL | ≤ 0.05 µg/mL | 0.1 µg/mL (≈ 0.12 µM) | 0.2 µg/mL (≈ 0.241 µM) | 0.78 µg/mL (≈ 0.938 µM) | 3.13 µg/mL (≈ 3.76 µM) | 1.56 µg/mL (≈ 1.88 µM) | 3.13 µg/mL (≈ 3.76 µM) | 0.1 µg/mL (≈ 0.12 µM) | 0.1 µg/mL (≈ 0.12 µM) |
| C=C[C@]12OC(=O)N(CCCCn3cc(-c4ccc(Cl)nc4)nc3C)[C@@H]1[C@@H](C)C(=O)[C@H](C)C[C@@](C)(OC)[C@H](O[C@@H]1O[C@H](C)C[C@H](N(C)C)[C@H]1O)[C@@H](C)C(=O)[C@@H](C)C(=O)O[C@@H]2CC | ≤ 0.05 µg/mL | ≤ 0.05 µg/mL | ≤ 0.05 µg/mL | 0.78 µg/mL (≈ 0.894 µM) | 0.2 µg/mL (≈ 0.229 µM) | > 50 µg/mL | ≤ 0.05 µg/mL | 0.1 µg/mL (≈ 0.115 µM) | 0.2 µg/mL (≈ 0.229 µM) | 1.56 µg/mL (≈ 1.79 µM) | 6.25 µg/mL (≈ 7.16 µM) | 3.13 µg/mL (≈ 3.59 µM) | 0.4 µg/mL (≈ 0.458 µM) | ≤ 0.05 µg/mL | 0.1 µg/mL (≈ 0.115 µM) |
| C=C[C@]12OC(=O)N(CCCCn3cnc(-c4ccc(N(C)C)nc4)c3)[C@@H]1[C@@H](C)C(=O)[C@H](C)C[C@@](C)(OC)[C@H](O[C@@H]1O[C@H](C)C[C@H](N(C)C)[C@H]1O)[C@@H](C)C(=O)[C@@H](C)C(=O)O[C@@H]2CC | ≤ 0.05 µg/mL | ≤ 0.05 µg/mL | ≤ 0.05 µg/mL | 1.56 µg/mL (≈ 1.8 µM) | 0.2 µg/mL (≈ 0.231 µM) | > 50 µg/mL | ≤ 0.05 µg/mL | 0.1 µg/mL (≈ 0.115 µM) | 0.2 µg/mL (≈ 0.231 µM) | 1.56 µg/mL (≈ 1.8 µM) | 12.5 µg/mL (≈ 14.4 µM) | 0.78 µg/mL (≈ 0.9 µM) | 0.78 µg/mL (≈ 0.9 µM) | 0.2 µg/mL (≈ 0.231 µM) | 0.2 µg/mL (≈ 0.231 µM) |

Further lines, results first:

| MIC (Streptococcus pneumoniae [1]) | MIC (Streptococcus pneumoniae [2]) | MIC (Streptococcus pyogenes) | MIC (Streptococcus pneumoniae [3]) | MIC [4] | MIC (Staphylococcus aureus [5]) | MIC (Streptococcus pneumoniae [6]) | MIC (Enterococcus faecalis [7]) | MIC (Staphylococcus aureus [8]) | MIC (Haemophilus influenzae [9]) | MIC (Haemophilus influenzae [10]) | MIC (Enterococcus faecalis [11]) | MIC (Streptococcus pneumoniae [12]) | MIC (Streptococcus pneumoniae [13]) | MIC [14] | Compound |
| --- | --- | --- | --- | --- | --- | --- | --- | --- | --- | --- | --- | --- | --- | --- | --- |
| ≤ 0.05 µg/mL | ≤ 0.05 µg/mL | ≤ 0.05 µg/mL | 0.78 µg/mL (≈ 0.919 µM) | 0.1 µg/mL (≈ 0.118 µM) | > 50 µg/mL | ≤ 0.05 µg/mL | 0.1 µg/mL (≈ 0.118 µM) | 0.2 µg/mL (≈ 0.236 µM) | 1.56 µg/mL (≈ 1.84 µM) | 6.25 µg/mL (≈ 7.36 µM) | 0.1 µg/mL (≈ 0.118 µM) | 0.1 µg/mL (≈ 0.118 µM) | 0.1 µg/mL (≈ 0.118 µM) | 0.2 µg/mL (≈ 0.236 µM) | C=C[C@]12OC(=O)N(CCN(C)Cc3cccc(-c4cccnc4)c3)[C@@H]1[C@@H](C)C(=O)[C@H](C)C[C@@](C)(OC)[C@H](O[C@@H]1O[C@H](C)C[C@H](N(C)C)[C@H]1O)[C@@H](C)C(=O)[C@@H](C)C(=O)O[C@@H]2CC |
| ≤ 0.05 µg/mL | ≤ 0.05 µg/mL | ≤ 0.05 µg/mL | 0.78 µg/mL (≈ 0.977 µM) | 0.2 µg/mL (≈ 0.251 µM) | > 50 µg/mL | ≤ 0.05 µg/mL | 0.1 µg/mL (≈ 0.125 µM) | 0.2 µg/mL (≈ 0.251 µM) | 0.78 µg/mL (≈ 0.977 µM) | 1.56 µg/mL (≈ 1.95 µM) | 0.78 µg/mL (≈ 0.977 µM) | 12.5 µg/mL (≈ 15.7 µM) | 0.1 µg/mL (≈ 0.125 µM) | 0.1 µg/mL (≈ 0.125 µM) | C=C[C@]12OC(=O)N(CCCCn3cnc4cccnc43)[C@@H]1[C@@H](C)C(=O)[C@H](C)C[C@@](C)(OC)[C@H](O[C@@H]1O[C@H](C)C[C@H](N(C)C)[C@H]1O)[C@@H](C)C(=O)[C@@H](C)C(=O)O[C@@H]2CC |
| ≤ 0.05 µg/mL | ≤ 0.05 µg/mL | ≤ 0.05 µg/mL | 0.78 µg/mL (≈ 0.945 µM) | 0.2 µg/mL (≈ 0.242 µM) | > 50 µg/mL | ≤ 0.05 µg/mL | 0.1 µg/mL (≈ 0.121 µM) | 0.2 µg/mL (≈ 0.242 µM) | 1.56 µg/mL (≈ 1.89 µM) | 3.13 µg/mL (≈ 3.79 µM) | 0.4 µg/mL (≈ 0.485 µM) | 0.2 µg/mL (≈ 0.242 µM) | 0.1 µg/mL (≈ 0.121 µM) | 0.2 µg/mL (≈ 0.242 µM) | C=C[C@]12OC(=O)N(CCCCn3cnc(-c4cncnc4)c3)[C@@H]1[C@@H](C)C(=O)[C@H](C)C[C@@](C)(OC)[C@H](O[C@@H]1O[C@H](C)C[C@H](N(C)C)[C@H]1O)[C@@H](C)C(=O)[C@@H](C)C(=O)O[C@@H]2CC |
